Article PMC8010095, “Discovery of novel antituberculosis agents among 3-phenyl-5-(1-phenyl-1H-[1,2,3]triazol-4-yl)-[1,2,4]oxadiazole derivatives targeting aminoacyl-tRNA synthetases” (Scientific Reports, 2021)
≈ marks a conversion by molar mass, not a printed value.

Assays:
[1] = test system: isoniazid-resistant H37Rv (katG^del) (MS015); experiment: microbe, parasite or virus in culture; assay type: cell-based; conditions: > 80% reduction in growth, screened at 20, 2 and 0.2 mg/L, 7H9 complete medium; for MIC: Mycobacterium tuberculosis, H37RV, read-out: Growth inhibition cutoff, H37Rv (katG^del)
[2] = test system: rifampin-resistant strain H37Rv (rpoB^S450L) (ATCC #35,838); assay type: cell-based, Mycobacterium tuberculosis
[3] = test system: moxifloxacin-resistant strain H37Rv (gyrA^D94K) (MOX3); assay type: cell-based, Mycobacterium tuberculosis
[4] = test system: M. tuberculosis mono-resistant strains; experiment: microbe, parasite or virus in culture; assay type: cell-based

| SMILES | Growth inhibition cutoff, H37Rv (katG^del) [1] [mg/L] | Growth inhibition cutoff, H37Rv (rpoB^S450L) [2] [mg/L] | Growth inhibition cutoff, H37Rv (gyrA^D94K) [3] [mg/L] | MIC [1] [µg/mL] | growth inhibition cutoff [4] [µM] | MIC ([4]; Mycobacterium tuberculosis, read-out: growth inhibition cutoff) [µM] |
| --- | --- | --- | --- | --- | --- | --- |
| Nc1c(-c2nc(-c3ccccc3)no2)nnn1-c1ccccc1F [Compound 1] | > 20 | > 20 | > 20 |  |  |  |
| Nc1c(-c2nc(-c3ccccc3)no2)nnn1-c1ccc(C(F)(F)F)c(Cl)c1 [Compound 2] |  | > 20 | > 20 | > 20 |  |  |
| Cc1c(-c2nc(-c3ccccc3F)no2)nnn1-c1ccc(F)c(Cl)c1 [Compound 4] | > 20 | > 20 | > 20 |  |  |  |
| Cc1c(-c2nc(-c3ccccc3F)no2)nnn1-c1ccc(Br)cc1 [Compound 5] | > 20 | 2 to 20 | 2 to 20 |  |  |  |
| Cc1c(-c2nc(-c3ccccc3F)no2)nnn1-c1cc(F)ccc1F [Compound 6] | > 20 | > 20 | > 20 |  |  |  |
| Cc1c(-c2nc(-c3ccccc3Cl)no2)nnn1-c1cccc(F)c1 [Compound 7] | > 20 | > 20 | > 20 |  |  |  |
| Cc1ccccc1-c1noc(-c2nnn(-c3ccc(Br)cc3)c2C)n1 [Compound 8] | > 20 | > 20 | > 20 |  |  |  |
| Nc1c(-c2nc(-c3ccc(F)cc3)no2)nnn1-c1ccccc1 [Compound 9] | > 20 | > 20 | > 20 |  |  |  |
| Nc1c(-c2nc(-c3ccc(F)cc3)no2)nnn1-c1ccc(Cl)cc1 [Compound 10] | > 20 | > 20 | > 20 |  |  |  |
| Nc1c(-c2nc(-c3ccc(F)cc3)no2)nnn1-c1ccc(Br)cc1 [Compound 11] | > 20 | > 20 | > 20 |  |  |  |
| Nc1c(-c2nc(-c3ccc(F)cc3)no2)nnn1-c1ccc(F)cc1 [Compound 12] | > 20 | > 20 | > 20 |  |  |  |
| COc1ccc(-n2nnc(-c3nc(-c4ccc(F)cc4)no3)c2N)cc1 [Compound 13] |  | > 20 | > 20 | > 20 |  |  |
| CCc1ccc(-n2nnc(-c3nc(-c4ccc(F)cc4)no3)c2N)cc1 [Compound 14] | > 20 | > 20 | > 20 |  |  |  |
| Nc1c(-c2nc(-c3ccc(F)cc3)no2)nnn1-c1cccc(F)c1 [Compound 15] | > 20 | > 20 | > 20 |  |  |  |
| Nc1c(-c2nc(-c3ccc(F)cc3)no2)nnn1-c1cccc(Cl)c1 [Compound 16] | > 20 | > 20 | > 20 |  |  |  |
| COc1ccc(-n2nnc(-c3nc(-c4ccc(F)cc4)no3)c2N)cc1Cl [Compound 17, 3-(3-chloro-4-methoxy-phenyl)-5-[3-(4-fluoro-phenyl)-[1,2,4]oxadiazol-5-yl]-3H-[1,2,3]triazol-4-ylamine] | > 20 | > 20 | > 20 |  |  |  |
| Cc1cccc(-n2nnc(-c3nc(-c4ccc(F)cc4)no3)c2N)c1 [Compound 18] | > 20 | > 20 | > 20 |  |  |  |
| Nc1c(-c2nc(-c3ccc(F)cc3)no2)nnn1-c1cccc(C(F)(F)F)c1 [Compound 19] | > 20 | > 20 | > 20 |  |  |  |
| COc1cccc(-n2nnc(-c3nc(-c4ccc(F)cc4)no3)c2N)c1 [Compound 20] | > 20 | 2 to 20 | 2 to 20 |  | 5.7 to 57 |  |

| SMILES | Growth inhibition cutoff, H37Rv (katG^del) [1] [mg/L] | Growth inhibition cutoff, H37Rv (rpoB^S450L) [2] [mg/L] | Growth inhibition cutoff, H37Rv (gyrA^D94K) [3] [mg/L] | MIC [1] [µg/mL] | growth inhibition cutoff [4] [µM] | MIC ([4]; Mycobacterium tuberculosis, read-out: growth inhibition cutoff) [µM] |
| --- | --- | --- | --- | --- | --- | --- |
| COc1ccc(-n2nnc(-c3nc(-c4ccc(F)cc4)no3)c2N)cc1OC [Compound 21] | > 20 | > 20 | > 20 |  |  |  |
| Nc1c(-c2nc(-c3ccc(F)cc3)no2)nnn1-c1ccc(F)cc1F [Compound 22] | > 20 | > 20 | > 20 |  |  |  |
| Nc1c(-c2nc(-c3ccc(F)cc3)no2)nnn1-c1ccccc1F [Compound 23] | > 20 | > 20 | > 20 |  |  |  |
| COc1ccccc1-n1nnc(-c2nc(-c3ccc(F)cc3)no2)c1N [Compound 26] | > 20 | > 20 | > 20 |  |  |  |
| COc1ccc(Cl)cc1-n1nnc(-c2nc(-c3ccc(F)cc3)no2)c1N [Compound 27] |  | 2 to 20 | > 20 | > 20 |  | 5.17 to 51.7 (≈ 2 to 20 µg/mL) |
| COc1ccc(C)cc1-n1nnc(-c2nc(-c3ccc(F)cc3)no2)c1N [Compound 28] | > 20 | > 20 | > 20 |  |  |  |
| COc1ccc(OC)c(-n2nnc(-c3nc(-c4ccc(F)cc4)no3)c2N)c1 [Compound 29] | > 20 | > 20 | > 20 |  |  |  |
| CCOc1ccccc1-n1nnc(-c2nc(-c3ccc(F)cc3)no2)c1N [Compound 30] | > 20 | > 20 | > 20 |  |  |  |
| Nc1c(-c2nc(-c3ccc(Cl)cc3)no2)nnn1-c1ccc(Br)cc1F [Compound 31] | > 20 | > 20 | > 20 |  |  |  |
| Nc1c(-c2nc(-c3ccc(Br)cc3)no2)nnn1-c1ccc(F)cc1 [Compound 32] | > 20 | > 20 | > 20 |  |  |  |
| Nc1c(-c2nc(-c3ccc(Br)cc3)no2)nnn1-c1cccc(F)c1 [Compound 33] | > 20 | > 20 | > 20 |  |  |  |
| COc1ccccc1-n1nnc(-c2nc(-c3ccc(Br)cc3)no2)c1N [Compound 35] | > 20 | > 20 | > 20 |  |  |  |
| CCOc1ccccc1-n1nnc(-c2nc(-c3ccc(Br)cc3)no2)c1N [Compound 36] | > 20 | > 20 | > 20 |  |  |  |
| COc1ccc(-c2noc(-c3nnn(-c4cc(Cl)ccc4OC)c3N)n2)cc1 [Compound 37] | > 20 | > 20 | > 20 |  |  |  |
| COc1ccc(-c2noc(-c3nnn(-c4ccc(Cl)cc4)c3C)n2)cc1OC [Compound 38] | > 20 | > 20 | > 20 |  |  |  |
| CCOc1ccc(-c2noc(-c3nnn(-c4ccccc4F)c3N)n2)cc1 [Compound 39] | > 20 | > 20 | > 20 |  |  |  |
| CCOc1ccc(-c2noc(-c3nnn(-c4ccccc4Cl)c3N)n2)cc1 [Compound 40] | > 20 | > 20 | 2 to 20 |  | 5.22 to 52.2 |  |
| CCOc1ccc(-c2noc(-c3nnn(-c4ccc(F)c(Cl)c4)c3N)n2)cc1 [Compound 41] | > 20 | > 20 | > 20 |  |  |  |
